Format in all cases: cell-based
Assay [1] addresses T1, human muscarinic M3 receptor (Homo sapiens, UniProt P20309).
T1 construct: expressed in transfected cells
The experiment in a line: Alphascreen Surefire phospho-ERK1/2 functional assay, M3. Conditions: for EC50: CHO cells stably expressing human M3, read-out: pEC50 M3 (converted); for Emax: CHO, read-out: % Emax cf. ACh, M3, CHO cells stably expressing human M3, relative to ACh; for % Emax cf. ACh, M3: CHO cells stably expressing human M3, relative to ACh. How it is done:
(§1) ERK1/2 phosphorylation is a downstream consequence of both Gq/11 and Gi/o protein coupled receptor activation, making it highly suitable for the assessment of M1, M3 (Gq/11 coupled) and M2, M4 receptors (Gi/o coupled), rather than using different assay formats for different receptor subtypes. CHO cells stably expressing the human muscarinic M1, M2, M3 or M4 receptor were plated (25K/well) onto 96-well tissue culture plates in MEM-alpha+10% dialysed FBS. Once adhered, cells were serum-starved overnight. Agonist stimulation was performed by the addition of 5 μL agonist to the cells for 5 min (37° C.). Media was removed and 50 μL of lysis buffer added. […] Plates were incubated for 2 h with gentle agitation in the dark and then read on a PHERAstar plate reader.
(§2) pEC50 and Emax figures were calculated from the resulting data for each receptor subtype.
(In Alpha technology, singlet oxygen from a donor bead excites a nearby acceptor bead.)

Assay [2] addresses T2, human muscarinic M2 receptor (Homo sapiens, UniProt P08172).
T2 sequence (P08172 1-466): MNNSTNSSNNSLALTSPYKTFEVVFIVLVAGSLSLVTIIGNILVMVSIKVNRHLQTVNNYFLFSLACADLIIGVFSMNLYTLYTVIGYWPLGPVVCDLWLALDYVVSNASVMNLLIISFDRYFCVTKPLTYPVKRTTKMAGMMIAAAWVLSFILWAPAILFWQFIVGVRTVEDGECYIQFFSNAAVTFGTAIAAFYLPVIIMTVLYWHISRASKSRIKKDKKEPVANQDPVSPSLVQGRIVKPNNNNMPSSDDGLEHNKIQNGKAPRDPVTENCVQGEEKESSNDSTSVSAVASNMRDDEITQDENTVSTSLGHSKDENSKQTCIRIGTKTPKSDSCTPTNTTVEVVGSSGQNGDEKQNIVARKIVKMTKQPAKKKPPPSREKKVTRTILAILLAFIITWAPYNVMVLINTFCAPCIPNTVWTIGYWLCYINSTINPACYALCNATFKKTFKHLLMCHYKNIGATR
The experiment in a line: Alphascreen Surefire phospho-ERK1/2 functional assay, M2. Conditions: for EC50: CHO cells stably expressing human M2, read-out: pEC50 M2 (converted); for Emax: CHO, read-out: % Emax cf. ACh, M2, CHO cells stably expressing human M2, relative to ACh; for % Emax cf. ACh, M2: CHO cells stably expressing human M2, relative to ACh. As to the method: as §1, §2

For assay [3], the target named is T3, human muscarinic M1 receptor (Homo sapiens, UniProt P11229).
T3 sequence (P11229 1-460): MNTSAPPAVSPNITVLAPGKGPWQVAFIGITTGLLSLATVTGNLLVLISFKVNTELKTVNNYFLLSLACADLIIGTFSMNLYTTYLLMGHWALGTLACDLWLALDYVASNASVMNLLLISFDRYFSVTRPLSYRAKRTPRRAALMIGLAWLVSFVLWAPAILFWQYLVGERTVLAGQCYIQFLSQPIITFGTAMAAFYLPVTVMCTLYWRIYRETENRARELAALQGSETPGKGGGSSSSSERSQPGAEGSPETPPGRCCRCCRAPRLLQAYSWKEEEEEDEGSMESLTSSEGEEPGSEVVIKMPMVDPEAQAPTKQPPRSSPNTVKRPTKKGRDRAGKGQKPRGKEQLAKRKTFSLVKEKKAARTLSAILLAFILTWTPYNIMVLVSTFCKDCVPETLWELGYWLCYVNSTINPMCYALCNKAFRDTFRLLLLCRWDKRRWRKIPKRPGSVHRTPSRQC
The experiment in a line: Alphascreen Surefire phospho-ERK1/2 functional assay, M1. Particulars: for EC50: CHO cells stably expressing human M1, read-out: pEC50 M1 (converted); for Emax: CHO, read-out: % Emax cf. ACh, M1, CHO cells stably expressing human M1, relative to ACh; for % Emax cf. ACh, M1: CHO cells stably expressing human M1, relative to ACh. As to the method: as §1, §2

Assay [4] concerns the target T4, human muscarinic M4 receptor (Homo sapiens, UniProt P08173).
T4 construct: expressed in transfected cells
T4 sequence (P08173 1-479): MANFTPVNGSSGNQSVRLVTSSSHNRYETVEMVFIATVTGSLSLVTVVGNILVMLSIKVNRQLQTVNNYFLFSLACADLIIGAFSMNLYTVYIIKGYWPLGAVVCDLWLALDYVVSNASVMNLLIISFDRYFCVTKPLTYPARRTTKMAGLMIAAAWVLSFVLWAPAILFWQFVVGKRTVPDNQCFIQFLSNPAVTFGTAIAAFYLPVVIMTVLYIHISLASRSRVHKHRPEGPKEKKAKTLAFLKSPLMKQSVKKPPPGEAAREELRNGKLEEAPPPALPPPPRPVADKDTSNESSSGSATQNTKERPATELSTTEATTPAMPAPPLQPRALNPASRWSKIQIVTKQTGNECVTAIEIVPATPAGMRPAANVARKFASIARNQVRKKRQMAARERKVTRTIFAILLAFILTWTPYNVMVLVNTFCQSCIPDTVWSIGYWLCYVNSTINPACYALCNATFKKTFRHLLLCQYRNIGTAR
As to the kind of experiment: Alphascreen Surefire phospho-ERK1/2 functional assay, M4. Particulars: for EC50: CHO cells stably expressing human M4, read-out: pEC50 M4 (converted); for Emax: CHO, read-out: % Emax cf. ACh, M4, CHO cells stably expressing human M4, relative to ACh; for % Emax cf. ACh, M4: CHO cells stably expressing human M4, relative to ACh. How it is done:
as §1, §2

SMILES strings stand for the structures.

Here are results for 14 molecules from patent publication US12202843B2, “Muscarinic receptor agonists” (Nxera Pharma UK Limited, priority 2014, dated 2025).

T1 sequence (P20309 whole entry): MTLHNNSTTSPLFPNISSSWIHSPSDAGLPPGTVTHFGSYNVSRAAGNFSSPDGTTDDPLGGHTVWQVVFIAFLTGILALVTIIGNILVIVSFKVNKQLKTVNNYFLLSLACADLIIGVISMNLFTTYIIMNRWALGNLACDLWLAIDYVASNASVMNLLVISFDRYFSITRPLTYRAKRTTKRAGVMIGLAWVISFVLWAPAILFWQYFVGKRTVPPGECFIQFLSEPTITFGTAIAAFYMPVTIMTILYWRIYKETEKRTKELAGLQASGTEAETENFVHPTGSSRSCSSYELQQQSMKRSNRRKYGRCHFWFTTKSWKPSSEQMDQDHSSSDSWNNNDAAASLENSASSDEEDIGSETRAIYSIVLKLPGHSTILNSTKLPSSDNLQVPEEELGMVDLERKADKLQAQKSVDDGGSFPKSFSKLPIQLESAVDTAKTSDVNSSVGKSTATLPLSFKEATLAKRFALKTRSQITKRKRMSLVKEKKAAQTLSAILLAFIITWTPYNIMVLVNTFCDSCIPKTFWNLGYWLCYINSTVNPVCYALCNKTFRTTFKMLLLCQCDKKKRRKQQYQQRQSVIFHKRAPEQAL

What is called Emax is the maximal effect, on the per cent scale that the assay sets. For `CC#CCOC(=O)N1[C@@H]2CCC[C@H]1CC(N1CCC3(CC1)CNC(=O)C3)C2` (mixture of isomers) [Example 5-3], the EC50 was 6310 nM in assay [1], more than 20000 nM in assay [2], 31.6 nM in assay [3] and 31.6 nM in assay [4]. Moreover, the Emax in assay [1] came out at 19%; in assay [2] it was 7%; in assay [3], 80%; in assay [4], 37%.
For `CCOC(=O)N1C2CCC1CC(N1CCC3(CC1)CNC(=O)C3)C2` (single isomer, unassigned) [Example 2-2 Isomer 2, ethyl 3-(3-oxo-2,8-diazaspiro[4.5]dec-8-yl)-8-azabicyclo[3.2.1]octane-8-carboxylate], the “% Emax cf. ACh, M3” value in assay [1] (listed as 2-2 Isomer 2) was 0%. Moreover, the figures for the Emax in assay [2] and in assay [3] were 0% and 86%, respectively. The “% Emax cf. ACh, M4” value in assay [4] (listed as 2-2 Isomer 2) amounted to 31%.
Consider `O=C1CC2(CCN(C3CC4CCC(C3)N4C(=O)OCCF)CC2)CN1` (single isomer, unassigned) [Example 2-3 Isomer 2], for which the EC50 in assay [1] is more than 20000 nM; in assay [2], more than 20000 nM; in assay [3] it was 79.4 nM; in assay [4], more than 20000 nM. Besides, the Emax in assay [1] came out at 0%; in assay [2], 4%. Further, the “% Emax cf. ACh, M1” value in assay [3] (listed as 2-3 Isomer 2) is given as 49%. Moreover, in assay [4] (listed as 2-3 Isomer 2), the “% Emax cf. ACh, M4” value was found to be 16%.
Regarding `C#CCOC(=O)N1C2CCC1CC(N1CCC3(CC1)CNC(=O)C3)C2` (single isomer, unassigned) [Example 2-4 Isomer 1], the EC50 in assay [1] is more than 20000 nM; in assay [2], more than 20000 nM; in assay [3], 100 nM; in assay [4], 126 nM. The “% Emax cf. ACh, M3” value in assay [1] (listed as 2-4 Isomer 1) is on record as 7%. Also, in assay [2] (listed as 2-4 Isomer 1), the “% Emax cf. ACh, M2” value stood at 27%. In addition, the Emax is 92% in assay [3] and 64% in assay [4].
For the molecule `C#CCOC(=O)N1C2CCC1CC(N1CCC3(CC1)CNC(=O)C3)C2` (single isomer, unassigned) [Example 2-4 Isomer 2], in assay [1] (listed as 2-4 Isomer 2), the “% Emax cf. ACh, M3” value turned out to be 0%. Also, in assay [2] (listed as 2-4 Isomer 2), the “% Emax cf. ACh, M2” value was found to be 8%. In addition, in assay [3], the EC50 is 20 nM and the “% Emax cf. ACh, M1” value was 86%. Also, in assay [4], the EC50 is 25.1 nM and the “% Emax cf. ACh, M4” value was 53%.
In the case of `CCOC(=O)N1CC2CCC1CC2N1CCC2(CC1)CNC(=O)O2` (single isomer, unassigned) [Example 3-2 Isomer 2, ethyl 5-(2-oxo-1-oxa-3,8-diazaspiro[4.5]dec-8-yl)-2-azabicyclo[2.2.2]octane-2-carboxylate], in assay [3], the EC50 is 100 nM and the “% Emax cf. ACh, M1” value worked out at 127%. Moreover, in assay [4], the EC50 was 398 nM and the “% Emax cf. ACh, M4” value amounted to 36%.
`CCOC(=O)N1CC2CCC1CC2N1CCC2(CC1)OC(=O)NC2CC` (single isomer, unassigned) [Example 3-3 Isomer 2, ethyl 5-(4-ethyl-2-oxo-1-oxa-3,8-diazaspiro[4.5]dec-8-yl)-2-azabicyclo[2.2.2]octane-2-carboxylate]: in assay [3], the EC50 is 794 nM and the Emax amounted to 76%. In addition, in assay [4], the EC50 was 316 nM and the Emax was 56%.
In the case of `CCOC(=O)N1CC2CCC(C1)C2N1CCC2(CC1)CNC(=O)C2` (single isomer, unassigned) [Example 4-1 Isomer 2], in assay [3], the EC50 is 501 nM and the Emax stood at 36%. For the same molecule, in assay [4], the EC50 is more than 20000 nM and the Emax is 3%.
In the case of `CCOC(=O)N1C2CCCC1CC(N1CCC3(CC1)CNC(=O)O3)C2` (single isomer, unassigned) [Example 5-4 Isomer 1], in assay [3], the EC50 was 398 nM and the Emax turned out to be 76%. Besides, the EC50 in assay [4] was more than 20000 nM. Moreover, the “% Emax cf. ACh, M4” value in assay [4] (listed as 5-4 Isomer 1) amounted to 39%.
As for `COC(=O)N1CC2CC(N3CCC4(CC3)CNC(=O)C4)CC1C2` (single isomer, unassigned) [Example 6-1 Isomer 1], in assay [3], the EC50 was 2510 nM. In addition, the “% Emax cf. ACh, M1” value in assay [3] (listed as 6-1 Isomer 1) is 78%. For the same molecule, in assay [4], the EC50 is more than 20000 nM and the Emax stood at 53%.
Take `CCOC(=O)N1C2CCC1CC(N1CCCC3(CC1)CNC(=O)O3)C2` (single isomer, unassigned) [Example 9-2 Isomer 1, ethyl 3-(2-oxo-1-oxa-3,8-diazaspiro[4.6]undec-8-yl)-8-azabicyclo[3.2.1]octane-8-carboxylate]: the EC50 in assay [3] and in assay [4] was more than 20000 nM in each case. Further, the “% Emax cf. ACh, M1” value in assay [3] (listed as 9-2 Isomer 1) came out at 23%. In addition, the “% Emax cf. ACh, M4” value in assay [4] (listed as 9-2 Isomer 1) worked out at 13%.
For the molecule `CCOC(=O)N1C2CCC1CC(N1CCCC3(CC1)CNC(=O)O3)C2` (single isomer, unassigned) [Example 9-2 Isomer 2, ethyl 3-(2-oxo-1-oxa-3,8-diazaspiro[4.6]undec-8-yl)-8-azabicyclo[3.2.1]octane-8-carboxylate], the EC50 in assay [3] and in assay [4] was more than 20000 nM throughout. For the same molecule, the “% Emax cf. ACh, M1” value in assay [3] (listed as 9-2 Isomer 2) is listed as 18%. The “% Emax cf. ACh, M4” value in assay [4] (listed as 9-2 Isomer 2) is 8%.
With `CCOC(=O)N1C2CCC1CC(N1CCCC3(CC1)CNC(=O)O3)C2` (single isomer, unassigned) [Example 9-2 Isomer 3, ethyl 3-(2-oxo-1-oxa-3,8-diazaspiro[4.6]undec-8-yl)-8-azabicyclo[3.2.1]octane-8-carboxylate], the EC50 in assay [3] is 501 nM; in assay [4], 79.4 nM. The “% Emax cf. ACh, M1” value in assay [3] (listed as 9-2 Isomer 3) is listed as 113%. Moreover, in assay [4] (listed as 9-2 Isomer 3), the “% Emax cf. ACh, M4” value turned out to be 81%.
Take `CCOC(=O)N1C2CCC1CC(N1CCCC3(CC1)CNC(=O)O3)C2` (single isomer, unassigned) [Example 9-2 Isomer 4, ethyl 3-(2-oxo-1-oxa-3,8-diazaspiro[4.6]undec-8-yl)-8-azabicyclo[3.2.1]octane-8-carboxylate]: the EC50 in assay [3] was 10 nM; in assay [4] it was 5.01 nM. Besides, the “% Emax cf. ACh, M1” value in assay [3] (listed as 9-2 Isomer 4) was 103%. Moreover, the “% Emax cf. ACh, M4” value in assay [4] (listed as 9-2 Isomer 4) came out at 66%.
